The results in this text go back to ChEMBL document CHEMBL1121918, “Synthesis and pharmacological evaluation of poly(oxyethylene) derivatives of 4-isobutylphenyl-2-propionic acid (ibuprofen)” (J Med Chem, 1981).

Where only a bound is given, the exact number is not on record here.

The series can be described thus: Lethal dose in mice when administered orally. It is filed as toxicity, organism-based. Conditions: mouse, in vivo, po.
In general, LD50 refers to the dose at which mortality reaches 50%. The low end stands for greater toxicity, the high end for lower toxicity. With `CC(C)Cc1ccc(C(C)C(=O)OCCOCCOCCOCCO)cc1` (stereo not drawn), the 50% lethal dose (LD50) was greater than 2000 mg/kg.
`CC(C)Cc1ccc(C(C)C(=O)OCCOCCOCCOCCOCCOCCOCCOCCOCCOCCOCCOCCOCCOCCOCCOCCOCCOCCOCCOCCOCCOCCOCCOCCOCCOCCOCCOCCOCCOCCOCCOCCOCCOCCOCCOCCOCCOCCOCCOCCOCCOCCOCCOCCOCCOC(=O)C(C)c2ccc(CC(C)C)cc2)cc1` (stereo not drawn) displayed an LD50 greater than 2000 mg/kg.
Turning to `CC(C)Cc1ccc(C(C)C(=O)OCCOCCOCCOCCOCCOCCOCCOCCOCCOCCOCCOCCOCCOCCOCCOCCOCCOCCOCCOCCOC(=O)C(C)c2ccc(CC(C)C)cc2)cc1` (stereo not drawn), the LD50 was greater than 2000 mg/kg.
